Values quoted from earlier work in patent US20260183237A1, “NANOEMULSION WITHOUT PROPYLENE GLYCOL” (BIOFRONTERA, INC., priority 2023, published 2026).

## NCC(=O)CCC(=O)O [5-aminolevulinic acid]
  octanol-water partition coefficient (logP): around −3
